In data set [1] the target is 58 kinases. The data set can be described thus: Kinase panel (Z′-Lyte, Adapta/Lanthascreen), 58 kinases. Type of data set: biochemical. To be noted: for Kinase panel @500 nM hits > 50%: number of the 58 kinases inhibited more than 50% at 500 nM; for Kinase panel @500 nM hits > 80%: number of the 58 kinases inhibited more than 80% at 500 nM. The method, then: To assess the kinase selectivity of compounds, Z′-Lyte biochemical assay, and Adapta/Lanthascreen binding assays from Life technologies were used according to manufacturer's instructions. Pourcentages of inhibition at 500 nM of test compounds were performed towards 58 kinases: ABL1, ACVR1B (ALK4), AKT2 (PKB beta), AMPK (A1/132/G3), AURKA (Aurora A), AXL, BRAF, BTK, CAMK2B (CaMKII beta), CDK2/cyclin A, CHEK1 (CHK1), CLK1, CSNK1A1 (CK1 alpha 1), CSNK2A1 (CK2 alpha 1), DAPK3 (ZIPK), DYRK1A, EGFR (ErbB1), EPHB3, ERBB2 (HER2), FGFR2, FLT3, FRAP1 (mTOR), GSK3B (GSK3 beta), IGF1R, IKBKB (IKK beta), INSR, IRAK4, JAK2, KDR (VEGFR2), KIT, LCK, MAP2K1 (MEK1), MAPK10 (JNK3), MAPK11 (p38 beta), MAPKAPK2, MARK2, MET (cMet), NEK2, NTRK1 (TRKA), PAK2 (PAK65), PDGFRB (PDGFR beta), PDK1 Direct, PHKG2, PIK3CA/PIK3R1 (p110 alpha/p85 alpha), PIM1, PLK1, PRKACA (PKA), PRKCA (PKC alpha), PTK2 (FAK), RET, ROCK1, RPS6KA1 (RSK1), RPS6KB1 (p70S6K), SRC, STK3 (MST2), SYK, TEK (Tie2), TYRO3 (RSE).
For orientation: In TR-FRET formats the signal depends on donor and acceptor labels being close together.

Data set [2] deals with Caco 2 cell lines. The following applies: Caco-2, pH 7.4.
Procedure: Caco 2 cell lines were used for the in vitro transport studies and were obtained from ATCC. Cells were split every other day at a split ratio of 1:3-1:5 and grown in Dulbecco's Modified Eagle Medium (GlutaMAX I, 4,500 mg/L D-glucose, sodium pyruvate.) supplemented with 10% FBS in the presence of antibiotics. For transport studies, cells were seeded onto polycarbonate Transwell filter membranes (Millipore) at a density of 60,000 cells/well. After 24 h post seeding, changed medium and cultured for another 21 days before transport experiments. For transport studies, donor solutions were prepared by diluting the stock solutions of test compounds in transport medium (HBSS buffer with 10 mM HEPES, pH 7.4). Receiver solutions were the same HBSS buffer with 10 mM HEPES, pH 7.4. The transport of test compounds (5 μM) was measured in duplicate in two directions [apical to basolateral (A→B) and basolateral to apical (B→A)].
The permeability coefficient for membrane transport of test compounds was determined using the following equation: Papp (cm/sec)=(Vr/CO) (1/S) (dC/dt); Papp=apparent permeability, Vr=volume of medium in the receiver chamber, CO=PAR of the test drug in the receiver chamber, S=surface area of monolayer, dC/dt=drug PAR in the receiver chamber with time). Efflux Ratio was defined as: Efflux Ratio=Papp B-A/Papp A-B Bioanalysis was done on LC-MS/MS.
Data set [3] deals with T1, ERK2 (MAPK1) (Homo sapiens, UniProt P28482).
T1 construct: purchased Life technologies
The data set can be described thus: ERK2 (MAPK1) enzymatic assay (Z′-Lyte). Type of data set: biochemical. The method, then: To assess the capacity of compounds to inhibit ERK2 enzymatic activity, Z′-Lyte biochemical assay from Life technologies was used according to manufacturer's instructions. Briefly, black 384-well plates containing 100 nl of 100× compound solution in 100% DMSO, 2.4 μl kinase buffer, 5 μl 2×MAPK1 (ERK2)/Ser/Thr 03 mixture and 2.5 μl 4×ATP solution were used. Plates were shaken for 30 seconds and incubated for 60 minutes at room temperature. Then, 5 μl of a 1:1024 dilution of Development Reagent A was added. Plates were shaken for 30 seconds and incubated for 60 minutes at room temperature. A plate reader was used to read fluorescence. […] Kinase buffer consisted of 50 mM HEPES pH 7.5, 0.01% BRIJ-35, 10 mM MgCl2, 1 mM EGTA.

The test system of data set [4] is A375 cells (malignant melanoma). The data set can be described thus: Cell line proliferation assay (MTT, A375). Type of data set: cell-based. The following applies: Homo sapiens, A-375, 72 hours. The method, then: A cell line assay was used to determine the capacity of compounds to inhibit cell proliferation. A375 cells (malignant melanoma) were grown to near 80% confluence and seeded at 3000 cells per 100 μl per well in DMEM with 10% FBS in 96-well flat bottom plates. Cells were incubated for 24 hours at 37° C. under 5% CO2. 100 μl compound solutions were added to cells and incubated for 72 hours at 37° C. Total volume of media was 200 μl per well. Compounds were screened in 0.15% DMSO (final) using 10 titration points in duplicate. Negative control wells consisted of vehicle only (0.15% DMSO in 10% FBS DMEM). After 72 hours of compound treatment, SDS 1% (final) was added to positive control wells for 15 minutes at 37° C. Then, medium was discarded and replaced by 100 μl per well of a MTT solution (3-[4.5-dimethylthiazol-2-yl]-2.5-diphenyltetrazolium bromide) (Sigma, Cat #M5655) at 0.5 mg/ml in 10% FBS DMEM. Cells were incubated for 4 hours at 37° C. MTT reaction was stopped and homogenized by the addition of 100 μl per well of SDS 10% 0.01M HCl. After 16 hours at 37° C., absorbance was measured at 570 nm in a Bio-Tek plate reader (PowerWave HT). […] Analysis was performed using GraphPad Prism software.

The target in data set [5] is T2, hERG channel (Homo sapiens, UniProt Q12809).
T2 construct: a Chinese Hamster Ovary cell line stably expressing the full-length ion channel; expressed in transfected cells; host or cells: Chinese Hamster Ovary cell line
The data set can be described thus: hERG channel inhibition assay (patch clamp). The format is cell-based. The following applies: whole-cell patch clamp, CHO cell line expressing hERG.
Procedure: Compounds were used as a 10 mM stock in DMSO before dilution in HEPES-buffered saline to 30 μM. 6-point concentration-response curves were generated using 3.16-fold serial dilutions from the top test concentration. Electrophysiological recordings were made from a Chinese Hamster Ovary cell line stably expressing the full-length ion channel. Single cell ionic currents were measured in whole-cell configuration at room temperature (21-23° C.) using a Patchliner (Nanion Technologies). The internal solution for hERG contained (mM): 120 KF, 20 KCl, 10 EGTA, 10 HEPES and was buffered to pH 7.3. The external solution (HEPES-buffered saline, HEPES-buffered saline) contained (mM): 138 NaCl, 4.5 KCl, 1.8 CaCl2), 1.0 MgCl2, 10 HEPES, 10 glucose, buffered to pH 7.4. […] Currents were measured from the step and referenced to the holding current. Compounds were then incubated for 2 minutes to achieve steady state prior to addition of the next concentration.

Data set [6] concerns the target T3, CYP 3A4 (Homo sapiens, UniProt P08684).
T3 construct: endogenous in cells; host or cells: cryopreserved human hepatocytes
The data set can be described thus: CYP 3A4 inhibition assay in human hepatocytes. The following applies: cryopreserved human hepatocytes, midazolam probe substrate, 10 min. Type of data set: in vitro ADME. The method, then:
To assess the capacity of compounds to inhibit CYP 3A4 enzymatic activity, the test compounds (0.1 μM-25 μM) were incubated with cryopreserved human hepatocytes for 10 min in the presence of the specific CYP3A4 probe substrate, midazolam. 1-Hydroxymidazolam was monitored by LC-MS/MS and a decrease in the formation of the metabolite compared to the vehicle control was used to calculate an IC50 value.

Data set [7] can be described thus: PK experiments in mice. Type of data set: in vivo. To be noted: mouse, plasma, male BalbC mice, @20 mpk PO, @1 mpk IV. The method, then:
For intravenous injection, a single 1 mg/kg dose was injected in tail vein and blood was collected at 0.12, 0.25, 0.5, 1, 2, 4, 8 and 24 h after injection. For oral route, a single 20 mg/kg dose was administered, and blood was collected at 0.25, 0.5, 1, 2, 4, 8, 10 and 24 h after gavage. Plasma separated from blood samples was stored at −20° C. until analysis. Vials containing the study samples were retrieved and thawed to room temperature. A volume of 50 μl of sample was added to 200 μl of acetronitrile containing internal standard (tolbutamide; 25 ng/mL) and vortexed for 5 min and centrifuged at 14000 rpm for 5 min at 4° C. 200 μl of supernatant was separated and transferred to HPLC vial for analysis. For prodrug pharmacokinetics, only parent drug was dosed by HPLC.

“And” between values parts separate entries of the source, which are not always exact repeats. Equal entries are not always repeated.

The results in this text go back to patent US11827637B2, “Azaindole derivatives and their use as ERK kinase inhibitors” (AGV Discovery, priority 2022, dated 2023).

T1 sequence (P28482 whole entry): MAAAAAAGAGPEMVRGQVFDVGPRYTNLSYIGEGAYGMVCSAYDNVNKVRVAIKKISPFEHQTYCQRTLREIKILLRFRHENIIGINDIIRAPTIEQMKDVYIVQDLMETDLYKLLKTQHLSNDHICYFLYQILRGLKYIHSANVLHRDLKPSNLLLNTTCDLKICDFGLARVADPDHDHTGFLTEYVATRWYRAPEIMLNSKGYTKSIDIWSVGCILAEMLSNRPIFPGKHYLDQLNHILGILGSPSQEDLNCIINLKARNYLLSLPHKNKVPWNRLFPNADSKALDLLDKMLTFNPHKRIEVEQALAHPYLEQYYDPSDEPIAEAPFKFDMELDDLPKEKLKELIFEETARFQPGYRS
T2 sequence (Q12809 whole entry): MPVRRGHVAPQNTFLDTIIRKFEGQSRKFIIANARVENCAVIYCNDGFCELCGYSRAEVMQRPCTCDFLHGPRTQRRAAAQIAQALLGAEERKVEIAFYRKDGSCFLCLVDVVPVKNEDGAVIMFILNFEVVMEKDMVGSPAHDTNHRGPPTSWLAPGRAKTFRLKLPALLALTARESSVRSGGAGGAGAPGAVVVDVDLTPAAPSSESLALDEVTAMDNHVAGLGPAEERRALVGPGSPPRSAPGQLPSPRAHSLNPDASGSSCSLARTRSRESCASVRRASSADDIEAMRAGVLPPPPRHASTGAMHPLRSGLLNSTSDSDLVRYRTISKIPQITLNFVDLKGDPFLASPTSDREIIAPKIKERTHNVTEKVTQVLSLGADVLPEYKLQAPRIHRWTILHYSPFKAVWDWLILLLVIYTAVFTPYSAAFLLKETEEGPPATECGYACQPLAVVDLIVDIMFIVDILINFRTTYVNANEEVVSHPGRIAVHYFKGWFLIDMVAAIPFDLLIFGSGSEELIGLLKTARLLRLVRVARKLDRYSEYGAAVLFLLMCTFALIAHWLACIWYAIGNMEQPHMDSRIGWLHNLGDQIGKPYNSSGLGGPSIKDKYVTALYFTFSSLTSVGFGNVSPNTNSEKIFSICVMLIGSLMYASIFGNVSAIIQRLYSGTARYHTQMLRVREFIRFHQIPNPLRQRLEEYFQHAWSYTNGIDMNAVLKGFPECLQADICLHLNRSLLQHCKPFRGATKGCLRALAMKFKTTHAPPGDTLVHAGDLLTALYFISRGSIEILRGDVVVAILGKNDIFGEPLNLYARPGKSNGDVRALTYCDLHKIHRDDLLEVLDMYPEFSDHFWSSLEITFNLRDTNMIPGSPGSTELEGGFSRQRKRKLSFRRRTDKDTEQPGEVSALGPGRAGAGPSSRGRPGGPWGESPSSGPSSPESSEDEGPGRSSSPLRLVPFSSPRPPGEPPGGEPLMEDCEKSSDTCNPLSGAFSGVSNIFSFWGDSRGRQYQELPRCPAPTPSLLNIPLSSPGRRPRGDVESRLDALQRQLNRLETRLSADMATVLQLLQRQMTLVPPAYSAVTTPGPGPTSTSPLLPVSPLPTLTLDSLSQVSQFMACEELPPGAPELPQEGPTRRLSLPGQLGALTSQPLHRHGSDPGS
T3 sequence (P08684 whole entry): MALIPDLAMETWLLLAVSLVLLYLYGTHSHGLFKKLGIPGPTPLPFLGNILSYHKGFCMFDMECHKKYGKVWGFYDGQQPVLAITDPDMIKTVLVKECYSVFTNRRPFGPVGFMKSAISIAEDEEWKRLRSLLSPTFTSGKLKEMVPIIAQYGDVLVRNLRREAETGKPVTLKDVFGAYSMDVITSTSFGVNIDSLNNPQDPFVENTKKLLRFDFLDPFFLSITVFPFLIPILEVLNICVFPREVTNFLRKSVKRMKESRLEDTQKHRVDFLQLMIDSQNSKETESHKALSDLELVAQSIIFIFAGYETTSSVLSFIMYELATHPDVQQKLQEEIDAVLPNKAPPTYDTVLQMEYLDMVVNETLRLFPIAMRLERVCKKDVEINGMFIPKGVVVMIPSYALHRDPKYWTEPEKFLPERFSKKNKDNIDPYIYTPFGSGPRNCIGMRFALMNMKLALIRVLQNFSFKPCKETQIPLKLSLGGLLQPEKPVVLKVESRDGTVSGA

“(S)-1-(2-amino-1-(3-chlorophenyl)ethyl)-4-(5-morpholino-1H-pyrrolo[2,3-b]pyridin-3-yl)pyridin-2(1H)-one [Comparative compound A (S), reference compound]”: in data set [1], the “Kinase panel @500 nM hits > 50%” value is listed as 26/58 and the “Kinase panel @500 nM hits > 80%” value is 15/58. Also, the “Papp A-B” value in data set [2] is listed as < 10 10^−6 cm/s.

For `CN(C)C[C@H](c1cccc(F)c1)n1ccc(-c2c[nH]c3ncc(N4CCOCC4)cc23)cc1=O` [Compound no1 (S), (S)-1-(2-(dimethylamino)-1-(3-fluorophenyl)ethyl)-4-(5-morpholino-1H-pyrrolo[2,3-b]pyridin-3-yl)pyridin-2(1H)-one], the half-maximal inhibitory concentration (IC50) (in general, the concentration that inhibits the measured activity by half) in data set [3] was determined as 1.2 nM. Further, in data set [4], the IC50 worked out at 107 nM. Further, in data set [1], the “Kinase panel @500 nM hits > 50%” value is reported as 2/58 and the “Kinase panel @500 nM hits > 80%” value is listed as 1/58.

`CN(C)C[C@H](c1cccc(Cl)c1)n1ccc(-c2c[nH]c3ncc(N4CCOCC4)cc23)cc1=O` [Compound no2 (S), (S)-1-(1-(3-chlorophenyl)-2-(dimethylamino)ethyl)-4-(5-morpholino-1H-pyrrolo[2,3-b]pyridin-3-yl)pyridin-2(1H)-one] gave an IC50 in data set [3] of 2.1 nM. For the same compound, it took 35 nM to reach half-maximal inhibition in data set [4] (IC50). Also, in data set [1], the “Kinase panel @500 nM hits > 50%” value is 10/58 and the “Kinase panel @500 nM hits > 80%” value was 1/58.

For the compound `CN(C)C[C@H](c1ccc(Cl)c(Cl)c1)n1ccc(-c2c[nH]c3ncc(N4CCOCC4)cc23)cc1=O` [Compound no4 (S), (S)-1-(1-(3,4-dichlorophenyl)-2-(dimethylamino)ethyl)-4-(5-morpholino-1H-pyrrolo[2,3-b]pyridin-3-yl)pyridin-2(1H)-one], the IC50 was 3.1 nM in data set [3] and 72 nM in data set [4]. The “Kinase panel @500 nM hits > 50%” value in data set [1] is 5/58. The “Kinase panel @500 nM hits > 80%” value in data set [1] is 1/58.

Consider `CN(C)C[C@H](c1ccc(F)c(Br)c1)n1ccc(-c2c[nH]c3ncc(N4CCOCC4)cc23)cc1=O` [Compound no7 (S), (S)-1-(1-(3-bromo-4-fluorophenyl)-2-(dimethylamino)ethyl)-4-(5-morpholino-1H-pyrrolo[2,3-b]pyridin-3-yl)pyridin-2(1H)-one], for which the IC50 in data set [3] was 4.1 nM; in data set [4], 53 nM. Also, in data set [1], the “Kinase panel @500 nM hits > 50%” value is reported as 4/58. Moreover, in data set [1], the “Kinase panel @500 nM hits > 80%” value is given as 1/58.

`CN(C)C[C@H](c1cc(Cl)cc(Cl)c1)n1ccc(-c2c[nH]c3ncc(N4CCOCC4)cc23)cc1=O` [Compound no3 (S), (S)-1-(1-(3,5-dichlorophenyl)-2-(dimethylamino)ethyl)-4-(5-morpholino-1H-pyrrolo[2,3-b]pyridin-3-yl)pyridin-2(1H)-one]: the IC50 in data set [3] was 3.2 nM. Moreover, the half-inhibitory concentration (IC50) in data set [4] is 132 nM. Besides, in data set [1], the “Kinase panel @500 nM hits > 50%” value is 6/58 and the “Kinase panel @500 nM hits > 80%” value is recorded as 1/58.

As for `CN(C)C[C@H](c1cccc(Br)c1)n1ccc(-c2c[nH]c3ncc(N4CCOCC4)cc23)cc1=O` [Compound no5 (S), (S)-1-(1-(3-bromophenyl)-2-(dimethylamino)ethyl)-4-(5-morpholino-1H-pyrrolo[2,3-b]pyridin-3-yl)pyridin-2(1H)-one], the half-maximal inhibitory concentration (IC50) in data set [3] stood at 4.5 nM; in data set [4], 77 nM; in data set [5], 20500 nM; in data set [6], 9500 nM. In data set [1], the “Kinase panel @500 nM hits > 50%” value is 7/58. The “Kinase panel @500 nM hits > 80%” value in data set [1] is recorded as 1/58. Also, in data set [7] (20 mg/kg), the bioavailability (commonly dose-corrected exposure relative to a reference, in per cent) came out at 9.2%. The Cmax – broadly, the maximum level reached in the sampled fluid or tissue – in data set [7] was 1730 ng/mL and 3.3 µM. Further, the half-life (commonly how long it takes for the measured level to halve) in data set [7] was 1.83 h.

Turning to `CN(C)C[C@H](c1ccc(F)c(F)c1)n1ccc(-c2c[nH]c3ncc(N4CCOCC4)cc23)cc1=O` [Compound no17 (S), (S)-1-(1-(3,4-difluorophenyl)-2-(dimethylamino)ethyl)-4-(5-morpholino-1H-pyrrolo[2,3-b]pyridin-3-yl)pyridin-2(1H)-one], the IC50 is 2.7 nM in data set [3] and 103 nM in data set [4].

For `CN(C)C[C@H](c1cccc(Cl)c1)n1ccc(-c2c[nH]c3ncc(N4CCOCC4)c(F)c23)cc1=O` [Compound no22 (S), (S)-1-(1-(3-chlorophenyl)-2-(dimethylamino)ethyl)-4-(4-fluoro-5-morpholino-1H-pyrrolo[2,3-b]pyridin-3-yl)pyridin-2(1H)-one], the IC50 in data set [3] is 4 nM; in data set [4], 77 nM.

`CN(C)C[C@H](c1ccc(F)c(I)c1)n1ccc(-c2c[nH]c3ncc(N4CCOCC4)cc23)cc1=O` [Compound no8 (S), (S)-1-(2-(dimethylamino)-1-(4-fluoro-3-iodophenyl)ethyl)-4-(5-morpholino-1H-pyrrolo[2,3-b]pyridin-3-yl)pyridin-2(1H)-one]: the IC50 in data set [3] worked out at 2.2 nM; in data set [4] it was 64 nM. The “Kinase panel @500 nM hits > 50%” value in data set [1] is recorded as 7/58. The “Kinase panel @500 nM hits > 80%” value in data set [1] is recorded as 1/58.

For `CN(C)C[C@H](c1cccc(I)c1)n1ccc(-c2c[nH]c3ncc(N4CCOCC4)cc23)cc1=O` [Compound no6 (S), (S)-1-(2-(dimethylamino)-1-(3-iodophenyl)ethyl)-4-(5-morpholino-1H-pyrrolo[2,3-b]pyridin-3-yl)pyridin-2(1H)-one], the IC50 stood at 2.4 nM in data set [3] and 42 nM in data set [4].
